From patent US11116784B2, “Niacinamide (NAM) in ischemic tissue injury” (Beth Israel Deaconess Medical Center, Inc., priority 2016, dated 2021)
“Also recorded” adds a separate entry of the source.

Experiments:
[1] = test system: NNMT in cultured renal tubular cells (IMCD3); details: 24 hr exposure to 1-Me-Nam
Experimental: LC-MS assays were developed for multiplex quantification of Nam, NAD, and β-hydroxybutyrate (β-OHB) from cellular experiments. NAD measurements reflect total NAD^+ plus NADH. Briefly, conditioned medium was extracted with methanol (80% methanol final concentration) spiked with isotopic standards for Nam and β-OHB (CDN Isotopes, Inc.). Precipitated proteins were removed by centrifugation, and supernatants were analyzed directly. For analysis of cell lysates, cells were washed with ice-cold PBS, scraped and lysed on dry ice into methanol containing isotopic standards. After extraction, cell and media supernatants were analyzed by LC-MS/MS using reverse-phase chromatography (NAM and NAD/NADH) or hydrophilic interaction chromatography (β-OHB) coupled to tandem mass spectrometry using an API 5000 triple quadruple mass spectrometer. Analytes were quantified by multiple reaction monitoring using the following m/z transitions: β-OHB 103.1>59, β-OHB IS 105.1>60, NAM 123.3>80.2, NAM IS 127.3>84.2, NAD/NADH 664.2>542.0. Eluting peaks were quantified by area under the curve (AUC).
Mouse intermedullary collecting duct (IMCD3) cells were obtained from ATCC. […] Cells were transfected with siRNA targeting mouse PGC1, HCAR2 or a negative control siRNA (Qiagen) for 24 h. […] Prostaglandin E2 (PGE2) was measured in the conditioned media 24-72 hours after treatment.

[2] = test system: PGC1α KO mice; assay: Cardiac IRI with pressure volume loops in PGC1α KO mice; type: in vivo, mouse; details: Nam 400 mg/kg IP, one dose before IRI, two after; 2 weeks after 45 min coronary occlusion
Experimental: For cardiac IRI surgery, mice were anesthetized, intubated, and placed on a rodent ventilator. After thoracotomy, the left anterior descending artery was identified and ligated with a 7-0 silk suture tied around a specialized 30 gauge catheter. The animal remained under anesthesia and ventilation for 45 minutes of ischemia. Reperfusio was achieved by cutting the suture and re-establishing arterial perfusion. The thoracotomy was then sutured closed and animals recovered with warmed saline injected intraperitoneally.
Pressure volume loops were performed to assess cardiac parameters. Cardiac function was measured in mice using the left ventricle (LV) pressure-volume and echocardiography 2 weeks after cardiac IRI or sham control procedure. After 2% isolfurane inhalant anesthesia, the pressure-volume parameters were measured using a 1.4 French microtip pressure-volume catheter. The catheter was first inserted into the right common carotid artery and then gently advanced into the LV to obtain LV hemodynamic measurements. Data were recorded using a Powerlab system. Beat-by-beat pressure-volume parameters including heart rate, stroke volume, stroke work, and cardiac output were measured and analyzed using Cardiosoft Pro software. […] Two-dimensional guided M-mode images were recorded. […]

[3] = test system: PGC1α^−/− animals; assay: Intracardiac lipids after Nam; type: in vivo, mouse; details: Nam 400 mg/kg IP
[4] = test system: healthy 8-12 wk old male mice; assay: Renal blood flow by Doppler ultrasound in healthy mice; type: in vivo, mouse; details: Nam 400 mg/kg intraperitoneal x 1; 4 h after injection vs pre-Nam
Text: The full method is previously described (Tran et al. J Clin Invest 2011; 121, 4003-4014). Briefly, mice were lightly anesthetized, secured to a heat-controlled stage, and continuously monitored for respiration, ECG, and core temperature. A high frequency, high resolution digital imaging platform with linear array technology and equipped with a high-frequency linear array probe MS550D (22-55 MHz) was used throughout the study (Vevo 2100 Visual Sonics). The flow volume was modeled as a circular cylinder of length equal to the average velocity time integral and diameter measured empirically (n=3 cardiac cycles), then multiplied by the heart rate (bpm), then converted from mm^3/min to ml/min. All measurements and analyses were performed by a single blinded operator (EVK).

[5] = test system: mice; assay: Cisplatin nephrotoxicity model; type: in vivo, mouse; details: cisplatin 25 mg/kg IP day 0; Nam 400 mg/kg IP on day −1 and day 0
Text: All chemicals were purchased from Sigma-Aldrich unless otherwise noted.

[6] = test system: renal tubular cells (IMCD3); assay: PGE2 in conditioned media of renal tubular cells; type: cell-based, mouse
Experimental: Mouse intermedullary collecting duct (IMCD3) cells were obtained from ATCC. […] Cells were transfected with siRNA targeting mouse PGC1, HCAR2 or a negative control siRNA (Qiagen) for 24 h. Niacin, mepenzolate bromide, β-hydroxybutyrate, the NAMPT inhibitor FK866 ([…] et al. Cancer research 2003; 63, 7436-7442), and niacinamide were diluted to the indicated concentrations in serum-free cell culture medium. Prostaglandin E2 (PGE2) was measured in the conditioned media 24-72 hours after treatment.

[7] = test system: explanted hearts; assay: NAD in explanted hearts stored in UW Belzer preservation solution; design: species or system mouse; details: 500 μM, 1 mM or 10 mM Nam in ice-cold UW Belzer solution, 3 hours, vs UW Belzer alone
Experimental: (§1) A, To mimic donor organ harvest, deeply anesthetized mice were flushed intravascularly with ice-cold UW Belzer solution, then placed into ice cold solutions of UW-Belzer with or without 5 μM of P7C3, NAMPT agonist. After 16 hours for the explanted kidneys, organs were analyzed for levels of NAD (pg/μg of protein). B, To mimic donor organ harvest, deeply anesthetized mice were flushed intravascularly with ice-cold UW Belzer solution, then placed into ice cold solutions of UW-Belzer with or without 500 μM, 1 mM or 10 mM Nam. After 3 hours for the explanted hearts, organs were analyzed for levels of NAD (pg/μg of protein). C, NAMPT is the rate-limiting enzyme for the conversion of Nam to NAD via the intermediate NMN (nicotinamide mononucleotide).
(§2) To further expand upon the results from the retrospective cohort of patient study, the conditions of donor organ harvest were mimicked using mice in hopes of improving post-implantation graft performance (FIG. 23). In this experiment, kidney and heart were harvested and Nam or P7C3, a NAMPT agonist, were added to the preservation solution. Upon incubation of kidney with P7C3 in the preservation solution, NAD levels increased as compared to kidney incubated with the UW Belzer solution alone (FIG. 23A). […]

[8] = test system: mice; assay: Renal NAD and β-OHB after exogenous Nam in mice; type: in vivo, mouse
Experimental: All chemicals were purchased from Sigma-Aldrich unless otherwise noted. Niacinamide was given by intraperitoneal injection of 400 mg/kg/day×4 days in saline, with the final dose an hour prior to IRI surgery. In rescue experiments, the same dose was administered once 18 hours after reperfusion. Indomethacin was given by intraperitoneal injection of 10 mg/kg in 0.1 M sodium carbonate/saline an hour prior to IRI. […] In brief, amino acids, amines, acylcarnitines, nucleotides, and other cationic polar metabolites were measured in 10 μl of kidney homogenate using hydrophilic interaction liquid chromatography coupled with nontargeted, positive ion mode MS analysis on an Exactive Plus Orbitrap MS (Thermo Scientific). Polar and non-polar lipids were measured in 10 μl of kidney homogenate using C8 chromatography and nontargeted, positive ion mode MS analysis on a Q Exactive MS (Thermo Scientific). […] Results were analyzed in MetaboAnalyst (Xia et al., Nucleic Acids Res. 40 (Web Server issue): […]-33 (2012)). PGE2 was measured in mouse kidney tissue by ELISA (Cayman Chemical). β-OHB (Cayman Chemical) and total NAD (BioVision) was measured in mouse kidney tissue by colorimetric assays. […]

[9] = test system: PGC1α^−/− mice; assay: Renal ischemia-reperfusion injury (IRI) in PGC1α−/− mice with Nam pretreatment; type: in vivo, mouse
Experimental: (§3) Renal ischemia-reperfusion injury (IRI) was performed on 8-12 week-old males through two small paramedial dorsal incisions by applying a microvascular clamp to each renal pedicle for 20 minutes. Mice were anesthetized with isoflurane for the duration of surgery and warmed to 37° C. using a servo-controlled heating pad. Incisions were closed in two layers and mice were revived with 1 ml warm saline injected intraperitoneally.
(§4) All chemicals were purchased from Sigma-Aldrich unless otherwise noted. Niacinamide was given by intraperitoneal injection of 400 mg/kg/day×4 days in saline, with the final dose an hour prior to IRI surgery. In rescue experiments, the same dose was administered once 18 hours after reperfusion. Indomethacin was given by intraperitoneal injection of 10 mg/kg in 0.1 M sodium carbonate/saline an hour prior to IRI. […]
(§5) All measurements were performed in a blinded fashion by an independent facility. Creatinine was analyzed by LC/MS-MS at the University of Alabama Birmingham O'Brien Core Center for Acute Kidney Injury Research (NIH P30-DK079337). […]
For metabolomics measurements, snap frozen kidneys were cut to equal weights (20 mg/specimen) and mechanically homogenized into 4 volumes of ice-cold water. […] In brief, amino acids, amines, acylcarnitines, nucleotides, and other cationic polar metabolites were measured in 10 μl of kidney homogenate using hydrophilic interaction liquid chromatography coupled with nontargeted, positive ion mode MS analysis on an Exactive Plus Orbitrap MS (Thermo Scientific). Polar and non-polar lipids were measured in 10 μl of kidney homogenate using C8 chromatography and nontargeted, positive ion mode MS analysis on a Q Exactive MS (Thermo Scientific). […] Results were analyzed in MetaboAnalyst (Xia et al., Nucleic Acids Res. 40 (Web Server issue): W127-33 (2012)). […]

[10] = test system: mice with established AKI; assay: Nam rescue of established ischemic AKI (single dose 18 h after reperfusion); type: in vivo, mouse; details: Nam 400 mg/kg IP x 1, 18 h after onset of reperfusion
Experimental: as §3, §4, §5

[11] = test system: explanted kidneys; assay: NAD in explanted kidneys stored in UW Belzer preservation solution; design: species or system mouse; details: 5 μM P7C3 in ice-cold UW Belzer solution, 16 hours, vs UW Belzer alone
Experimental: as §1, §2

[12] = test system: iNephPGC1α mice; assay: Renal IRI in iNephPGC1α mice with inhibition of β-OHB signaling or prostaglandin synthesis; type: in vivo, mouse; details: 10 mg/kg IP one hour prior to IRI
Experimental: as §3, §4, §5

## C[n+]1cccc(C(N)=O)c1 [1-Me-Nam, 1-methyl-niacinamide]
[1]
  NAD in IMCD3 cells: dose-dependent induction of NAD

## NC(=O)c1cccnc1 [Nam, niacinamide]
[2]
  contraction (dP/dt max): improved
  relaxation (dP/dt min): improved
[3]
  intracardiac di- and tri-acylglycerols (DAG, TAG): decline markedly
  intracardiac phospholipids: largely unaltered
[4]
  renal blood flow: improved
[5]
  cisplatin-induced AKI (serial serum creatinine): prevented
[6]; Nam 1 μM for 24 h
  PGE2 secretion: augmented
[7]
  NAD levels in explanted hearts: increased; also recorded: can boost NAD levels
[8]; 4 h after a single IP Nam dose (100-400 mg/kg)
  renal NAD: dose-dependently increased; also recorded: can increase renal NAD levels
[8]; Nam 400 mg/kg IP x 4 d, p<0.0001
  renal β-OHB accumulation relative to normal circulating concentrations: ten-fold
[9]; Nam 400 mg/kg IP x 4 d, with and without IRI 24 h before tissue collection, p<0.001
  renal Nam: increased
[9]; Nam pretreatment 400 mg/kg IP x 4 d, 24 h after IRI
  post-ischemic fat accumulation (Oil Red O): normalized
[9]; PGC1α−/− mice, Nam 400 mg/kg/day IP x 4 d, last dose 1 h before IRI
  post-ischemic AKI (serum creatinine): completely prevented
[10]
  renal function (serial serum creatinine) in established AKI: significantly improved; also recorded: attenuated; also recorded: rapidly improved

## OC(CNc1ccccc1)Cn1c2ccc(Br)cc2c2cc(Br)ccc21 (stereo not shown) [P7C3]
[11]
  NAD levels in explanted kidneys: increased; also recorded: can boost NAD levels

## COc1ccc2c(c1)c(CC(=O)O)c(C)n2C(=O)c1ccc(Cl)cc1 [indomethacin]
[12]
  renal protection (serum creatinine 24 h after IRI): abolished

## C[N+]1(C)CCCC(OC(=O)C(O)(c2ccccc2)c2ccccc2)C1 (stereo not shown) [mepenzolate bromide]
[12]
  renal protection (serum creatinine 24 h after IRI): abolished

## CC(O)CC(=O)O (stereo not drawn) [β-OHB, beta-hydroxybutyrate]
[6]; exogenous β-OHB 5 mM, p<0.0001
  PGE2 secretion in PGC1α-silenced cells: still able to induce PGE2 secretion
